Experimental data from US11160767B2, “4,4′-trans-dihydroxystilbene for use in treating cancer” (The George Washington University, a Congressionally …, priority 2017, dated 2021).

Key:
RPK-9 cells = assay: Combination DHS and gemcitabine, CI, RPK-9 cells; type: cell-based, human; conditions: RPK-9, in vitro, 10 μM DHS
Method: (§1) In vitro cytotoxicity assays. Cells growing in the Log phase were treated with various compounds at different concentrations (generally 0.137 to 100 μM) for 72 hours at 37° C. SRB assay (Vichai and Kirtikara, 2006) was performed and the absorbance at 510 nm was read with a plate reader. The proliferation rate was calculated according to the Manufacturer's instruction. The IC50 value for each compound was determined from dose-effect relationship using the CompuSyn software (version 1.0.1; CompuSyn, Inc, Paramus, N.J.) (Chou, 2006). Cell proliferating doubling time was monitored over a period of 72 hours.
Next, the effect of combined treatment with DHS and gemcitabine on pancreatic tumor cells was investigated.

[1] = test system: HCT116 cells, U2OS cells, MDA-231/GFP cells, and PANC-1 cells; assay: Cytotoxicity across the four cancer cell lines (SAR summary); type: cell-based
Method: as §1
Based on identification of resveratrol as a lead compound in the drug screening assays, the anti-cancer activity of synthetic resveratrol analogs (FIG. 2) was next investigated and compared to resveratrol using HCT116 cells, U2OS cells, MDA-231/GFP cells, and PANC-1 cells.
The structure activity relationship (SAR) of the derivatives of resveratrol were considered.

And-1 = target: T1, And-1 (Homo sapiens, UniProt O75717); assay: Cellular thermal shift assay, And-1; type: cell-based; conditions: HCT116 cells
T1 construct: endogenous in cells; host or cells: HCT116
T1 sequence (O75717 whole entry): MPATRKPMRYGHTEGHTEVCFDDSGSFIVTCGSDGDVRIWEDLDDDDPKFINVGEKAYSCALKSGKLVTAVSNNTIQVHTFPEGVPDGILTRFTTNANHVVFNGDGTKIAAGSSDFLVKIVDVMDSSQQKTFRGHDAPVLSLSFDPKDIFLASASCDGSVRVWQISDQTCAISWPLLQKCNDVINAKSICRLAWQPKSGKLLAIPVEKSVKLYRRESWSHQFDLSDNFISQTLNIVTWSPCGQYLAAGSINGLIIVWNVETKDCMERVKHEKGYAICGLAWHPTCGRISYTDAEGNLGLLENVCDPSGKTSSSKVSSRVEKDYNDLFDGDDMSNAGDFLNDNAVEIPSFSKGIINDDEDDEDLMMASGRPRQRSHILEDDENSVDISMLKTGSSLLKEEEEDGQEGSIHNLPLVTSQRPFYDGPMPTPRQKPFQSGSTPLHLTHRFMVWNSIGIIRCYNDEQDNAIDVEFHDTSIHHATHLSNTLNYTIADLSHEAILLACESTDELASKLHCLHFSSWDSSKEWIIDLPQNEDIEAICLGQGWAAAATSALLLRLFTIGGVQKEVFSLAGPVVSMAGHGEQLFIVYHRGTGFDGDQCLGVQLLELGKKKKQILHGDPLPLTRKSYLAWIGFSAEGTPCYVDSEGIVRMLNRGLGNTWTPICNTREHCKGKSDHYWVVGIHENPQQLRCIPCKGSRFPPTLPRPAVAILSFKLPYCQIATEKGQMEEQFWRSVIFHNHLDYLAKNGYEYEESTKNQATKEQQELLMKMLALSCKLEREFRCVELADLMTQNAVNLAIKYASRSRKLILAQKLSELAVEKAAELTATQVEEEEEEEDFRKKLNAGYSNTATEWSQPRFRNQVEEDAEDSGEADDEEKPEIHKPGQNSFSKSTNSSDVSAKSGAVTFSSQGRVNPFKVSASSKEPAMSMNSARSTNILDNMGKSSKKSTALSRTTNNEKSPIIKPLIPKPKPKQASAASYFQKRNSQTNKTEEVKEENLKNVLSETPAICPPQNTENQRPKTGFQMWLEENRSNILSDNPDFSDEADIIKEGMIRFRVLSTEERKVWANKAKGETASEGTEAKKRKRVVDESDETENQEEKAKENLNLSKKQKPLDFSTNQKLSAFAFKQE
Method: In order to study the mechanisms by which DHS induces down-regulation of And-1, RRM1, and RRM2 proteins, DHS-resistant HCT116 cells were generated (FIG. 9C). […] Next, it was investigated whether DHS directly binds to And-1, RRM1, or RRM2. A cellular thermal shift assay (Jafari et al., 2014) was conducted for And-1 (FIG. 9E). […] A coimmunoprecipitation (CoIP) assay was conducted to determine whether And-1, RRM1, and RRM2 interact in the same complex. The result implied that […] (FIG. 9F).

purified RRM2 protein = purified RRM2 protein (Homo sapiens, UniProt P31350); assay: In vitro thermal shift assay with purified protein; type: binding; conditions: purified RRM1 and RRM2 mixed, incubated 4 hours
Method: (§2) To investigate binding of DHS to RRM1 and RRM2, a thermal shift assay was performed in HCT116 cells treated with DMSO (vehicle), resveratrol, DHS, gemcitabine, or hydroxyurea (Hu). Gemcitabine is known to bind RRM1 (Plunkett et al., 1995 and Chen et al., 2011), and Hu has been reported to bind RRM2 (Thelander et al., 1985). […] DHS stabilized RRM2 protein in a dose responsive manner (5 to 20 μM DHS; FIG. 11A). To rule out nonspecific effects of DHS on RRM2, an in vitro thermal shift assay was conducted. Purified RRM1 and RRM2 were mixed and then incubated with DHS or Hu for 4 hours before performing the assay.

RRM2 = target: T2, RRM2 (Homo sapiens, UniProt P31350); assay: Thermal shift assay in HCT116 cells, RRM2; type: cell-based
T2 construct: endogenous in cells; host or cells: HCT116
T2 sequence (P31350 1-389): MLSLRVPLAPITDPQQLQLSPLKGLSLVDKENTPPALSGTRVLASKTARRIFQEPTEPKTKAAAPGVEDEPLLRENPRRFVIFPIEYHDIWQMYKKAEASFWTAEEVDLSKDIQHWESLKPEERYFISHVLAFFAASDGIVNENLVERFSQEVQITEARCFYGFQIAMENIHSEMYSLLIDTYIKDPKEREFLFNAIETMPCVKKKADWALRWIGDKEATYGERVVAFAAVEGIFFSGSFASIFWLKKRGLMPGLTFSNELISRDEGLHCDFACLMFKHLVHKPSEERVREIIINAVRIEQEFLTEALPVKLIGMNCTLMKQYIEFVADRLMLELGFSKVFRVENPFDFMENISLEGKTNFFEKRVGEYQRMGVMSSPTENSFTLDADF
Method: as §2

HCT116 cells [2] = assay: Clonogenic colony formation assay; type: cell-based, human; conditions: 0 to 50 μM
Method: To confirm the cell killing effect of DHS, a clonogenic colony formation assay was conducted. […] The effect of DHS on growth of cancer cell lines was analyzed using The NCI Development Therapeutics Program (DTP).

HCT116 cells [3] = assay: dNTP amount in treated cells; type: cell-based, human
From the text: The effect of DHS on dNTP synthesis was investigated by measuring the amount of dNTPs in DHS-treated HCT116 cells.

U2OS = assay: In vitro cytotoxicity (SRB assay), U2OS; type: cell-based; conditions: Homo sapiens, 72 hours
Method: Cell lines and cell culture. HCT116, U205, PANC-1, MDA-231 cell lines were purchased from the American Type Culture Collection (Rockville, Md., US). Cells were cultured in the DMEM medium (Lonza, Basel, Switzerland) containing 10% fetal bovine serum (Gibco, Grand Island, N.Y., US), 100 Units/ml penicillin, 100 Units/mL streptomycin, […] L-glutamine (Gibco, Grand Island, N.Y., US) at 37° C. in a humidified atmosphere with 5% CO2.
as §1, with “Cells growing in the Log phase were treated with various compounds at different concentrations (generally 0.137 to 100 μM) for 72 hours at 37° C.” left out

RRM1 and RRM2 proteins = target: T3, RRM1 and RRM2 proteins (Homo sapiens, UniProt P31350); assay: RRM1 and RRM2 protein levels by Western blot; type: cell-based; conditions: HCT116 cells
T3 construct: endogenous in cells; host or cells: HCT116
Method: (§3) Western blot analysis. Compound-treated cells were harvested and lysed. Protein extracts were subjected to electrophoresis in a SDS-polyacrylamide gel. The resolved proteins were transferred onto polyvinylidene difluoride membranes (Amersham Biosciences, Piscataway, N.J., US). After the blocking step, membranes were incubated with primary IgG antibodies, washed, and then incubated with horseradish peroxidase-conjugated anti-rabbit IgG or anti-mouse IgG secondary antibodies. Western blot signals were visualized by chemiluminescence using SuperSignal West Pico chemiluminescence reagent (Pierce, Rockford, Ill., US).
(§4) The effect of DHS treatment on And-1, RRM1, and RRM2 expression was investigated.

And-1 protein = And-1 protein level by Western blot; type: cell-based; conditions: U2OS and HCT116 cells
Method: as §3, §4

plasmid DNA = assay: Incubation with plasmid DNA, UV absorption; type: binding
From the text: In addition, resveratrol has been previously reported to interact with DNA grooves (Usha et al., 2006). […] A similar result with And-1, RRM1, and RRM2 was also observed in DHS resistant HCT116 cells (data not shown).

Binding to And-1 (cellular thermal shift) (And-1): does not bind to And-1 | Stabilisation of purified RRM2 after high temperature incubation (purified RRM2 protein): stabilized purified RRM2 protein | RRM2 levels in thermal shift assay (binding) (RRM2): binds to RRM2 | UV absorption on incubation with plasmid DNA (DNA binding) (plasmid DNA): increased UV absorption
SMILES: Oc1ccc(/C=C/c2ccc(O)cc2)cc1 [DHS, 4,4′-trans-dihydroxystilbene]
Resensitisation to gemcitabine (RPK-9 cells): resensitized the gemcitabine-resistant pancreatic cancer line, RPK-9, to gemcitabine | Potency relative to resveratrol according to the IC50 values [1]: 10 times | IC50 ([1]; range over four cell lines): 2.3 to 22 µM | Colony formation (HCT116 cells [2]): stronger suppression effect on HCT116 cell colony formation than resveratrol | dNTP synthesis (HCT116 cells [3]): inhibited synthesis of dATP, dCTP, dGTP, and dTTP | IC50 (U2OS): 1230 ± 730 nM | RRM1 and RRM2 protein levels (RRM1 and RRM2 proteins): caused down-regulation of RRM1 and RRM2 proteins | And-1 protein level (And-1 protein): caused down-regulation of And-1 protein
